Here are results for 17 compounds from patent US10766884B2 (Pfizer Inc., priority 2018, dated 2020).

One experiment addresses CDK4 (Homo sapiens (Human), UniProt P11802). Kind of experiment: Phospho-Serine 795 Rb ELISA assay in JEKO-1 cells. Type of experiment: cell-based. The settings on record: overnight treatment, phospho-Rb S795, read-out: CDK4 pRB S795 ELISA JEKO-1 cells IC50.
The next experiment addresses CDK6 (Homo sapiens (Human), UniProt Q00534). Kind of experiment: Phospho-Serine 795 Rb ELISA assay in MV4-11 cells. The settings on record: overnight treatment, phospho-Rb S795, read-out: CDK6 pRB S795 ELISA MV4-11 cells IC50. Type of experiment: cell-based. On the procedure: JEKO-1 or MV4-11 cells were seeded at 15,000 or 20,000 cells per well, respectively, in 100 μL growth media and allowed to incubate at 37° C. with 5% CO2 overnight. The following day, compounds were serially diluted from a 10 mM top dose for an 11-point 3-fold dilution curve in DMSO. Compounds were intermediately diluted 1:200 into growth media prior to diluting 1:5 on cells for final concentration 10 μM to 0.1 nM in 0.1% DMSO on cells. JEKO-1 and MV4-11 cells were treated were treated overnight, at 37° C. with 5% CO2. Cells were lysed in 100 μL/well CST lysis buffer on ice and transferred to pre-coated and blocked anti-phospho-Ser795 Rb ELISA plates for overnight incubation at 4° C. Plates were washed to remove residual, unbound cellular proteins and total Rb detection antibody added for 90 minutes at 37° C. Following wash to remove unbound total Rb antibody, the HRP tagged antibody was allowed to bind for 30 minutes at 37° C. Following wash to remove unbound HRP antibody, Glo Substrate Reagent was added and incubated protected from light for 5 to 10 minutes. Plates were read in luminescence mode and IC50 values calculated.

A further experiment has as its target CDK6/Cyclin D3 (Homo sapiens (Human), UniProt Q00534). Kind of experiment: CDK6/Cyclin D3 mobility shift assay. Type of experiment: biochemical. The settings on record: activated CDK6/Cyclin D3, 3.5 mM ATP, Morrison fit; read-out: CDK6_D3 Ki.
The next experiment concerns the target CDK4/Cyclin D1 (Homo sapiens (Human), UniProt P11802). Kind of experiment: CDK4/Cyclin D1 mobility shift assay. The settings on record: activated CDK4/Cyclin D1, 3.5 mM ATP, Morrison fit; read-out: CDK4D1 Ki. Type of experiment: biochemical.

Chain of CDK6/Cyclin D3 (Q00534 whole entry): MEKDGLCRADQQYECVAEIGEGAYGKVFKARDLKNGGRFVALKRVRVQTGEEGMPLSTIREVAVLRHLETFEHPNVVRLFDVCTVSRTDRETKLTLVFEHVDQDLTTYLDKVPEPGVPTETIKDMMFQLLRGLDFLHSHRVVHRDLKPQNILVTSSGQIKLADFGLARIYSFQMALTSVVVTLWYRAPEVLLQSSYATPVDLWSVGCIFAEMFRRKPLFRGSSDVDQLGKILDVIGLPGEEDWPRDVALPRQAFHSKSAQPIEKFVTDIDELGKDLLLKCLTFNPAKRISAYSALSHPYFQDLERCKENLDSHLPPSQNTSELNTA
Chain of CDK6/Cyclin D3 (P30281 whole entry partner): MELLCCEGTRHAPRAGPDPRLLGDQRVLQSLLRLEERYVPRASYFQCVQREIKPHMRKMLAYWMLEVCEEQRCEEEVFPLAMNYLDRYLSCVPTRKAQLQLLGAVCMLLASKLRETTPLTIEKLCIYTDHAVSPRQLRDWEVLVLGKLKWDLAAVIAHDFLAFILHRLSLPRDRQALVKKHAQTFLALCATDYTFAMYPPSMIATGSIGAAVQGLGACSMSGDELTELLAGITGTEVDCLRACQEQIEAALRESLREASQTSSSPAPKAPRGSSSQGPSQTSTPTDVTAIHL
Chain of CDK6 (Q00534 whole entry): as the sequence (Q00534 whole entry) above
Chain of CDK6 (P30281 whole entry partner): as the sequence (P30281 whole entry partner) above
Chain of CDK4 (P11802 2-303): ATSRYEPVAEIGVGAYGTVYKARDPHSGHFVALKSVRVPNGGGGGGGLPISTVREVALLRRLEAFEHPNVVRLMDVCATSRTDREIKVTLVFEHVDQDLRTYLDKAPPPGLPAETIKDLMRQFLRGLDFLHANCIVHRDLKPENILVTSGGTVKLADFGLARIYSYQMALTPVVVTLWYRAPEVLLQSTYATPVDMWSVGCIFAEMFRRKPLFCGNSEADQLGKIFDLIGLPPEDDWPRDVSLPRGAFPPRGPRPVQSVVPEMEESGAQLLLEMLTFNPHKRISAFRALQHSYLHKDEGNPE
Chain of CDK4 (P24385 whole entry partner): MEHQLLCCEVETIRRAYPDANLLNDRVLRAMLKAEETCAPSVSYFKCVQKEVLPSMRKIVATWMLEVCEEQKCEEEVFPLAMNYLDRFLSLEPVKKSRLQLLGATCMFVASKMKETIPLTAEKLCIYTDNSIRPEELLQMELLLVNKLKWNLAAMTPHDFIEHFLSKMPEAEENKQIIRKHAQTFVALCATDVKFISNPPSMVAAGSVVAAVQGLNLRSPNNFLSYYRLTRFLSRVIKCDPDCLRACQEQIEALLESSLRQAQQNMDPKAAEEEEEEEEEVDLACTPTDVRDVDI
Chain of CDK4/Cyclin D1 (P11802 whole entry): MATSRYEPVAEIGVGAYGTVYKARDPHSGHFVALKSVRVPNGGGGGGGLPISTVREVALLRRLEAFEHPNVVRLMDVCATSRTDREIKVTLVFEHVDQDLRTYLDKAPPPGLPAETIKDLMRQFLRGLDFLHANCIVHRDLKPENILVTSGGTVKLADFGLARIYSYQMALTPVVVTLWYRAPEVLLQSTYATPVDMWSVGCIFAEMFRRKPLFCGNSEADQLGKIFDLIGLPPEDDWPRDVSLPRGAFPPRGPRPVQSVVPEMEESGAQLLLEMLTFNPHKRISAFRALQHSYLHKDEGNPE
Chain of CDK4/Cyclin D1 (P24385 whole entry partner): as the sequence (P24385 whole entry partner) above

Consider `CC(C)n1c(CN2CCC2)nc2c(F)cc(-c3nc(N[C@@H]4CCOC[C@H]4O)ncc3Cl)cc21` [Example H07, 1,5-anhydro-3-[(4-{2-[(azetidin-1-yl)methyl]-4-fluoro-1-(propan-2-yl)-1H-benzimidazol-6-yl}-5-chloropyrimidin-2-yl)amino]-2,3-dideoxy-D-threo-pentitol], for which the values for the IC50 at CDK4 and at CDK6 were 0.0483 µM and 0.409 µM, respectively. Besides, the Ki at CDK6/Cyclin D3 is 0.043 µM; at CDK4/Cyclin D1, 0.0014 µM.

For `C[C@@H](O)c1nc2c(F)cc(-c3nc(N[C@@H]4CCN(S(C)(=O)=O)C[C@H]4O)ncc3Cl)cc2n1C(C)(C)C` [Example A62, (3R,4R)-4-[(4-{1-tert-butyl-4-fluoro-2-[(1R)-1-hydroxyethyl]-1H-benzimidazol-6-yl}-5-chloropyrimidin-2-yl)amino]-1-(methanesulfonyl)piperidin-3-ol], the values for the IC50 at CDK4 and on CDK6 were 0.0275 µM and 0.0666 µM, respectively. For the same compound, the inhibition constant Ki was 0.008 µM on CDK6/Cyclin D3 and 0.0005 µM at CDK4/Cyclin D1.

Turning to `CC(C)NCc1nc2c(F)cc(-c3nc(N[C@@H]4CCOC[C@H]4O)ncc3Cl)cc2n1C(C)C` [Example H08, 1,5-anhydro-3-({5-chloro-4-[4-fluoro-1-(propan-2-yl)-2-{[(propan-2-yl)amino]methyl}-1H-benzimidazol-6-yl]pyrimidin-2-yl}amino)-2,3-dideoxy-D-threo-pentitol], the IC50 worked out at 0.0356 µM at CDK4 and 0.306 µM at CDK6. The values for the Ki on CDK6/Cyclin D3 and at CDK4/Cyclin D1 were 0.0445 µM and 0.0012 µM, respectively.

For `CC(C)(C)n1cnc2ccc(-c3nc(N[C@@H]4CCN(S(C)(=O)=O)C[C@H]4O)ncc3F)cc21` [Example A77, (3R,4R)-4-{[4-(1-tert-butyl-1H-benzimidazol-6-yl)-5-fluoropyrimidin-2-yl]amino}-1-(methanesulfonyl)piperidin-3-ol], the IC50 on CDK4 amounted to 0.0611 µM; at CDK6 it was 0.126 µM. Besides, the Ki on CDK6/Cyclin D3 turned out to be 0.0049 µM; at CDK4/Cyclin D1, 0.0003 µM.

Consider `CC(C)n1c(C(C)(O)C2CC2)nc2c(F)cc(-c3nc(N[C@@H]4CCOC[C@H]4O)ncc3Cl)cc21` (single isomer, unassigned) [Example A23], for which the IC50 on CDK4 is 0.0265 µM; on CDK6, 0.0841 µM. Further, the values for the Ki on CDK6/Cyclin D3 and on CDK4/Cyclin D1 were 0.0116 µM and 0.0005 µM, respectively.

For `Cn1nc2ccc(-c3nc(N[C@@H]4CCN(S(C)(=O)=O)C[C@H]4O)ncc3Cl)cc2c1C(C)(C)O` [Example A29], the values for the IC50 on CDK4 and on CDK6 were 0.0686 µM and 0.0957 µM, respectively. In addition, the Ki on CDK6/Cyclin D3 amounted to 0.0051 µM; on CDK4/Cyclin D1, 0.0006 µM.

For the compound `C[C@H]1COCc2nc3c(F)cc(-c4nc(N[C@@H]5CCN(S(C)(=O)=O)C[C@H]5O)ncc4Cl)cc3n21` [Example A10], the IC50 stood at 0.0727 µM at CDK4 and 0.195 µM at CDK6. Besides, the Ki turned out to be 0.0104 µM at CDK6/Cyclin D3 and 0.0006 µM at CDK4/Cyclin D1.

In the case of `CC(C)n1c(C2COC2)nc2c(F)cc(-c3nc(N[C@@H]4CCN(S(C)(=O)=O)C[C@H]4O)ncc3Cl)cc21` [Example A30], the results for the IC50 at CDK4 and at CDK6 were 0.0516 µM and 0.0635 µM, respectively. Also, the Ki on CDK6/Cyclin D3 was found to be 0.0049 µM; on CDK4/Cyclin D1, 0.0002 µM.

With `CC(C)n1c(CN)nc2c(F)cc(-c3nc(N[C@@H]4CCOC[C@H]4O)ncc3Cl)cc21` [Example A54, 3-({4-[2-(aminomethyl)-4-fluoro-1-(propan-2-yl)-1H-benzimidazol-6-yl]-5-chloropyrimidin-2-yl}amino)-1,5-anhydro-2,3-dideoxy-D-threo-pentitol], the results for the IC50 on CDK4 and at CDK6 were 0.173 µM and 0.605 µM, respectively. The Ki at CDK6/Cyclin D3 was 0.0375 µM; at CDK4/Cyclin D1 it was 0.0023 µM.

For `CC(C)n1c(CC(N)C(F)F)nc2c(F)cc(-c3nc(N[C@@H]4CCOC[C@H]4O)ncc3Cl)cc21` (single isomer, unassigned) [Example A57, 3-({4-[2-(2-amino-3,3-difluoropropyl)-4-fluoro-1-(propan-2-yl)-1H-benzimidazol-6-yl]-5-chloropyrimidin-2-yl}amino)-1,5-anhydro-2,3-dideoxy-D-threo-pentitol], the IC50 is 0.049 µM at CDK4 and 0.269 µM on CDK6. Further, the Ki stood at 0.0191 µM at CDK6/Cyclin D3 and 0.0004 µM on CDK4/Cyclin D1.

As to `Cc1nc2c(F)cc(-c3nc(N[C@@H]4CCN(S(C)(=O)=O)C[C@H]4O)ncc3Cl)cc2n1C1COC1` [Example A89, (3R,4R)-4-({5-chloro-4-[4-fluoro-2-methyl-1-(oxetan-3-yl)-1H-benzimidazol-6-yl]pyrimidin-2-yl}amino)-1-(methanesulfonyl)piperidin-3-ol], the IC50 worked out at 0.118 µM on CDK4 and 0.57 µM at CDK6. The figures for the Ki at CDK6/Cyclin D3 and on CDK4/Cyclin D1 were 0.012 µM and 0.0005 µM, respectively.

For `CC(C)(C)n1cnc2ccc(-c3cc(N[C@@H]4CCN(C(=O)CO)C[C@H]4O)ncc3Cl)nc21` [Example F22, 1-[(3R,4R)-4-{[4-(3-tert-butyl-3H-imidazo[4,5-b]pyridin-5-yl)-5-chloropyridin-2-yl]amino}-3-hydroxypiperidin-1-yl]-2-hydroxyethan-1-one], the figures for the IC50 at CDK4 and at CDK6 were 0.0613 µM and 0.171 µM, respectively. Also, the Ki turned out to be 0.0091 µM on CDK6/Cyclin D3 and 0.0005 µM on CDK4/Cyclin D1.

On to `CCS(=O)(=O)N1CC[C@@H](Nc2ncc(Cl)c(-c3cc(F)c4nc(C)n(C5COC5)c4c3)n2)[C@H](O)C1` [Example F08, (3R,4R)-4-({5-chloro-4-[4-fluoro-2-methyl-1-(oxetan-3-yl)-1H-benzimidazol-6-yl]pyrimidin-2-yl}amino)-1-(ethanesulfonyl)piperidin-3-ol], for which the IC50 on CDK4 turned out to be 0.108 µM; at CDK6, 0.311 µM. Besides, the Ki on CDK6/Cyclin D3 was found to be 0.0115 µM; at CDK4/Cyclin D1 it was 0.0005 µM.

Regarding `CC(C)(CN)n1cnc2c(F)cc(-c3nc(N[C@@H]4CCOC[C@H]4O)ncc3Cl)cc21` [Example A51, 3-({4-[1-(1-amino-2-methylpropan-2-yl)-4-fluoro-1H-benzimidazol-6-yl]-5-chloropyrimidin-2-yl}amino)-1,5-anhydro-2,3-dideoxy-D-threo-pentitol], the figures for the IC50 at CDK4 and on CDK6 were 0.245 µM and 1.53 µM, respectively. Further, the Ki was 0.0557 µM at CDK6/Cyclin D3 and 0.002 µM at CDK4/Cyclin D1.

`CC(C)n1c(C(C)(O)C2CC2)nc2c(F)cc(-c3nc(N[C@@H]4CCOC[C@H]4O)ncc3Cl)cc21` (single isomer, unassigned) [Example A24]: the results for the IC50 on CDK4 and on CDK6 were 0.0401 µM and 0.167 µM, respectively. The Ki on CDK6/Cyclin D3 turned out to be 0.0164 µM; on CDK4/Cyclin D1 it was 0.0013 µM.

For the compound `C[C@@H]1COCc2nc3c(F)cc(-c4nc(N[C@@H]5CCN(S(C)(=O)=O)C[C@H]5O)ncc4Cl)cc3n21` [Example A11], the figures for the IC50 on CDK4 and at CDK6 were 0.123 µM and 0.144 µM, respectively. In addition, the Ki at CDK6/Cyclin D3 came out at 0.003 µM; on CDK4/Cyclin D1 it was 0.0003 µM.

Regarding `CC(=O)N1CC[C@@H](Nc2ncc(F)c(-c3cc(F)c4nc(C)n(C(C)C)c4c3)n2)[C@H](O)C1` [Example F16, 1-[(3R,4R)-4-({5-fluoro-4-[4-fluoro-2-methyl-1-(propan-2-yl)-1H-benzimidazol-6-yl]pyrimidin-2-yl}amino)-3-hydroxypiperidin-1-yl]ethan-1-one], the IC50 on CDK4 was found to be 0.675 µM; at CDK6 it was 0.363 µM. Moreover, the Ki at CDK6/Cyclin D3 came out at 0.026 µM; at CDK4/Cyclin D1 it was 0.0014 µM.
